Results: PMC9501232, “Novel 4-Azapregnene Derivatives as Potential Anticancer Agents: Synthesis, Antiproliferative Activity and Molecular Docking Studies” (Molecules, 2022)

Key:
[1] = tested on: LNCaP cells; assay: MTT cell proliferation assay, LNCaP; format: cell-based, human; details: 72 h
Experimental: (§1) Cell lines, namely LNCaP, PC-3, T47-D and NHDF were obtained from American Type Culture Collection (ATCC; Manassas, VA, USA) and cultured in 75 cm^2 culture flasks at 37 °C in a humidified air incubator with 5% CO2. LNCaP, PC-3 and T47-D cells, which were used in passages 20th to 27th, 25th to 29th and 10th to 15th, respectively, were cultured in RPMI 1640 medium (Sigma-Aldrich, Inc., St. Louis, MO, USA) with 10% fetal bovine serum (FBS; Sigma-Aldrich, Inc. St. Louis, MO, USA) and 1% of the antibiotic mixture of 10,000 IU/mL penicillin G and […] of streptomycin (Sp, Sigma-Aldrich, Inc. St. Louis, MO, USA). Finally, NHDF cells (Normal Human Dermal Fibroblasts) were cultured in RPMI 1640 medium supplemented with 10% FBS, 2 mM L-glutamine, 10 mM HEPES, 1 mM sodium pyruvate and 1% of an antibiotic/antimycotic mixture (10,000 U/mL penicillin G, 100 mg/mL streptomycin and 25 µg/mL amphotericin B) (Ab; Sigma-Aldrich, Inc. St. Louis, MO, USA), and these cells were used in passages 10 to 12. For all cell types, the medium was renewed every 2–3 days until cells reach nearly the confluence state. Then, they were detached gently by trypsinization (trypsin-EDTA solution: 0.125 g/L of trypsin and 0.02 g/L of EDTA).
(§2) All the stock solutions were prepared by dissolving compounds in dimethyl sulfoxide (DMSO; Sigma-Aldrich, Inc., St. Louis, MO, USA) at 10 mM and stored at 4 °C. From these solutions, the several diluted compounds solutions in different concentrations were freshly prepared in a complete culture medium before each experiment.
(§3) As previously referred, cells were trypsinized after reaching a near confluence state and counted by the trypan blue exclusion assay in a Neubauer chamber. Then, 100 µL of cell suspension/well with an initial density of 2 × 10^4 cells/mL were seeded in 96-well culture plates (Nunc, Apogent, Denmark) and left to adhere for 48 h. After cells adherence, the medium was replaced by the distinct solutions of the compounds in the study (30 µM for preliminary studies and 0.01, 0.1, 1, 10, 50 and 100 µM for concentration–response studies) in the appropriate medium for approximately 72 h. 5-FU and finasteride were used as positive controls and untreated cells were used as the negative control. Each experiment was performed in quadruplicate and independently performed at least two times. The in vitro antiproliferative effects were evaluated by the MTT assay (Sigma-Aldrich, Inc. St. Louis, USA). After the incubation period, the medium was removed and 100 µL of phosphate buffer saline (NaCl 137 mM, KCl 2.7 mM, Na2HPO4 10 mM and KH2PO4 1.8 mM in deionized water and pH adjusted to 7.4) were used to wash the cells. Then, 100 µL of the MTT solution (5 mg/mL) was prepared in the appropriate serum-free medium and was added to each well, followed by incubation for 4 h at 37 °C. Hereafter, the MTT containing medium was removed and the formazan crystals were dissolved in DMSO. Then the absorbance was measured at 570 nm using a microplate spectrophotometer BIO-RAD xMarkTM. Cell viability values were expressed as percentages relative to the absorbance determined in the cells used as negative controls.
(§4) The data are expressed as a mean ± standard deviation (SD) and differences between groups were considered statistically significant when p < 0.05. The IC50 values were determined through sigmoidal fitting analysis with variable slope and considering a 95% confidence level. All data shown are representative of at least two independent experiments.

[2] = tested on: LNCaP cells; assay: Flow cytometry cell viability after PI staining; format: cell-based, human; details: 50 µM
Experimental: Similar to the previous study, the analysis of cell viability was accomplished by flow cytometry after staining dead cells with propidium iodide (PI; Invitrogen, Carlsbad, USA). Succinctly, 1 mL of a cell suspension was seeded in 12-well culture plates (initial cell density of 5 × 10^4 cells/mL of LNCaP cells for 24 h assay and 2 × 10^4 cells/mL of the same cell line for 72 h assay) in a complete culture medium. After 48 h, the cells were treated with finasteride and 5-FU, as positive controls, and compound 3g at a concentration of 50 µM. Untreated cells were used as a negative control. At the pretended time point, the supernatant was collected and pooled with the cells harvested by trypsin treatment (each well was also washed with 400 µL of PBS before trypsin treatment). The resulting cell suspension was kept on ice and pelleted by centrifugation and resuspended with 400 µL of complete medium. Afterward, 5 µL of PI (1 mg/mL) was transferred to a FACS tube and 395 µL of the cell suspension was added to this tube. A total of 20,000 events (very small events excluded) were acquired using a FACSCalibur flow cytometer, using the FCS, SSC and FL3 (PI) channels. Acquisition and analysis were executed with CellQuestTM Pro (v. 5.1) software. […] The percentages of each region were calculated for a total of R1 + R2 + R3. […]

[3] = tested on: PC-3 cells; assay: MTT cell proliferation assay, PC-3; format: cell-based, human
Experimental: as §1, §2, §3, §4

[4] = tested on: NHDF cells (Normal Human Dermal Fibroblasts); assay: MTT cell proliferation assay, NHDF; format: cell-based; details: 72 h
Experimental: as §1, §2, §3, §4

IC50 ([1]; Homo sapiens, MTT): 10.2 µM
IC50 ([3]; Homo sapiens, PC-3, 72 h, MTT): 3.64 µM
Compound: C[C@]12CC[C@H]3[C@@H](CC=C4NC(=O)CC[C@@]43C)[C@@H]1CC[C@@H]2C(=O)/C=C/c1cccnc1 [Compound 3g, 21E-[(Pyridin-3-yl)methylidene]-4-azapregn-5-ene-3,20-dione]
MTT screening, cell proliferation ([1]; 30 µM, average ± SD): 0.7 ± 1.0 percentage of negative control
Number of living cells (PI non-permeant) ([2]; 24 h): drastic reduction in the number of living cells
Number of viable cells (PI non-permeant) ([2]; 72 h): almost absent
MTT screening, cell proliferation ([3]; PC-3, 30 µM, 72 h, average ± SD): 0.1 ± 0.1 percentage of negative control
MTT screening, cell proliferation ([4]; 30 µM, average ± SD): 23.8 ± 3.2 percentage of negative control
IC50 ([4]; Homo sapiens, MTT): 3.09 µM
